Results reported in ChEMBL document CHEMBL1201862, “PubChem BioAssay data set” (2004).
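Each compound was tested at five concentrations against cells in 96-well plates for 48 hours. GI50: concentration for 50% inhibition of growth.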 Active and inactive are the calls of the source. Cut-off read from the data, not from the text of the source: active = GI50 up to about 1.1 µM and inactive = higher.

How the values were obtained:
Assay in all cases: growth of human tumour cells (NCI), 48 h
BT-549 = system: BT-549
SF-295 = system: SF-295
SK-MEL-28 = system: SK-MEL-28
A498 = system: A498
OVCAR-3 = system: OVCAR-3
SN12C = system: SN12C
HOP-92 = system: HOP-92
OVCAR-4 = system: OVCAR-4
OVCAR-5 = system: OVCAR-5
SNB-19 = system: SNB-19
OVCAR-8 = system: OVCAR-8
HL-60 = system: HL-60
U-251 = system: U-251
A549 = system: A549
MDA-MB-435 = system: MDA-MB-435
HCT-116 = system: HCT-116
NCI-H23 = system: NCI-H23
RPMI-8226 = system: RPMI-8226
KM12 = system: KM12
MCF7 = system: MCF7
ACHN = system: ACHN
HT-29 = system: HT-29
IGROV-1 = system: IGROV-1
RXF 393 = system: RXF 393
MDA-N = system: MDA-N
SNB-75 = system: SNB-75
HOP-62 = system: HOP-62
CCRF-CEM = system: CCRF-CEM
MOLT-4 = system: MOLT-4
CAKI-1 = system: CAKI-1
K562 = system: K562
NCI-H460 = system: NCI-H460
UACC-257 = system: UACC-257
SF-539 = system: SF-539
SF-268 = system: SF-268
PC-3 = system: PC-3
MDA-MB-231 = system: MDA-MB-231
TK-10 = system: TK-10
HCT-15 = system: HCT-15
LOX IMVI = system: LOX IMVI
Hs-578T = system: Hs-578T
NCI-H522 = system: NCI-H522
SW-620 = system: SW-620
M14 = system: M14
HCC 2998 = system: HCC 2998
NCI-H226 = system: NCI-H226
EKVX = system: EKVX
SK-MEL-2 = system: SK-MEL-2
UO-31 = system: UO-31
SK-OV-3 = system: SK-OV-3
NCI/ADR-RES = system: NCI/ADR-RES
SR = system: SR
UACC-62 = system: UACC-62
786-0 = system: 786-0
DU-145 = system: DU-145
COLO 205 = system: COLO 205
Malme-3M = system: Malme-3M
SK-MEL-5 = system: SK-MEL-5
T47D = system: T47D

SMILES: CC(=O)OCC1OC(OCCCCCCO)C(OC(C)=O)C(OC(C)=O)C1OC(C)=O (stereo not drawn)
- GI50 (BT-549): > 100 µM (inactive)
- GI50 (SF-295): > 100 µM (inactive)
- GI50 (SK-MEL-28): > 100 µM (inactive)
- GI50 (A498): > 100 µM (inactive)
- GI50 (OVCAR-3): > 100 µM (inactive)
- GI50 (SN12C): > 100 µM (inactive)
- GI50 (HOP-92): > 100 µM (inactive)
- GI50 (OVCAR-4): > 100 µM (inactive)
- GI50 (OVCAR-5): > 100 µM (inactive)
- GI50 (SNB-19): > 100 µM (inactive)
- GI50 (OVCAR-8): > 100 µM (inactive)
- GI50 (HL-60): > 100 µM (inactive)
- GI50 (U-251): > 100 µM (inactive)
- GI50 (A549): > 100 µM (inactive)
- GI50 (MDA-MB-435): > 100 µM (inactive)
- GI50 (HCT-116): > 100 µM (inactive)
- GI50 (NCI-H23): > 100 µM (inactive)
- GI50 (RPMI-8226): > 100 µM (inactive)
- GI50 (KM12): > 100 µM (inactive)
- GI50 (MCF7): > 100 µM (inactive)
- GI50 (ACHN): > 100 µM (inactive)
- GI50 (HT-29): > 100 µM (inactive)
- GI50 (IGROV-1): > 100 µM (inactive)
- GI50 (RXF 393): > 100 µM (inactive)
- GI50 (MDA-N): > 100 µM (inactive)
- GI50 (SNB-75): > 100 µM (inactive)
- GI50 (HOP-62): > 100 µM (inactive)
- GI50 (CCRF-CEM): > 100 µM (inactive)
- GI50 (MOLT-4): > 100 µM (inactive)
- GI50 (CAKI-1): > 100 µM (inactive)
- GI50 (K562): > 100 µM (inactive)
- GI50 (NCI-H460): > 100 µM (inactive)
- GI50 (UACC-257): > 100 µM (inactive)
- GI50 (SF-539): > 100 µM (inactive)
- GI50 (SF-268): > 100 µM (inactive)
- GI50 (PC-3): > 100 µM (inactive)
- GI50 (MDA-MB-231): > 100 µM (inactive)
- GI50 (TK-10): > 100 µM (inactive)
- GI50 (HCT-15): > 100 µM
- GI50 (LOX IMVI): > 100 µM (inactive)
- GI50 (Hs-578T): > 100 µM (inactive)
- GI50 (NCI-H522): > 100 µM (inactive)
- GI50 (SW-620): > 100 µM (inactive)
- GI50 (M14): > 100 µM (inactive)
- GI50 (HCC 2998): > 100 µM (inactive)
- GI50 (NCI-H226): > 100 µM (inactive)
- GI50 (EKVX): > 100 µM (inactive)
- GI50 (SK-MEL-2): > 100 µM (inactive)
- GI50 (UO-31): > 100 µM (inactive)
- GI50 (SK-OV-3): > 100 µM (inactive)
- GI50 (NCI/ADR-RES): > 100 µM (inactive)
- GI50 (SR): > 100 µM (inactive)
- GI50 (UACC-62): > 100 µM (inactive)

SMILES: Cc1ccc(S(=O)(=O)NC(=O)Nc2ccc(S(N)(=O)=O)cc2S(N)(=O)=O)cc1
- GI50 (BT-549): > 100 µM (inactive)
- GI50 (SF-295): > 100 µM (inactive)
- GI50 (SK-MEL-28): > 100 µM (inactive)
- GI50 (OVCAR-3): > 100 µM (inactive)
- GI50 (SN12C): > 100 µM (inactive)
- GI50 (HOP-92): > 100 µM (inactive)
- GI50 (OVCAR-4): > 100 µM (inactive)
- GI50 (OVCAR-5): > 100 µM (inactive)
- GI50 (SNB-19): > 100 µM (inactive)
- GI50 (OVCAR-8): > 100 µM (inactive)
- GI50 (786-0): > 100 µM (inactive)
- GI50 (HL-60): > 100 µM (inactive)
- GI50 (U-251): > 100 µM (inactive)
- GI50 (A549): > 100 µM (inactive)
- GI50 (MDA-MB-435): > 100 µM (inactive)
- GI50 (HCT-116): > 100 µM (inactive)
- GI50 (NCI-H23): > 100 µM (inactive)
- GI50 (DU-145): > 100 µM (inactive)
- GI50 (RPMI-8226): > 100 µM (inactive)
- GI50 (KM12): > 100 µM (inactive)
- GI50 (MCF7): > 100 µM (inactive)
- GI50 (HT-29): > 100 µM (inactive)
- GI50 (IGROV-1): > 100 µM (inactive)
- GI50 (RXF 393): > 100 µM (inactive)
- GI50 (MDA-N): > 100 µM (inactive)
- GI50 (COLO 205): > 100 µM (inactive)
- GI50 (Malme-3M): > 100 µM (inactive)
- GI50 (SNB-75): > 100 µM (inactive)
- GI50 (HOP-62): > 100 µM (inactive)
- GI50 (CCRF-CEM): > 100 µM (inactive)
- GI50 (MOLT-4): > 100 µM (inactive)
- GI50 (CAKI-1): > 100 µM (inactive)
- GI50 (K562): > 100 µM (inactive)
- GI50 (UACC-257): > 100 µM (inactive)
- GI50 (SF-268): > 100 µM (inactive)
- GI50 (PC-3): > 100 µM (inactive)
- GI50 (MDA-MB-231): > 100 µM (inactive)
- GI50 (TK-10): > 100 µM (inactive)
- GI50 (HCT-15): > 100 µM
- GI50 (LOX IMVI): > 100 µM (inactive)
- GI50 (Hs-578T): > 100 µM (inactive)
- GI50 (NCI-H522): > 100 µM (inactive)
- GI50 (SW-620): > 100 µM (inactive)
- GI50 (SK-MEL-5): > 100 µM (inactive)
- GI50 (M14): > 100 µM (inactive)
- GI50 (NCI-H226): > 100 µM (inactive)
- GI50 (EKVX): > 100 µM (inactive)
- GI50 (SK-MEL-2): > 100 µM (inactive)
- GI50 (UO-31): > 100 µM (inactive)
- GI50 (SK-OV-3): > 100 µM (inactive)
- GI50 (NCI/ADR-RES): > 100 µM (inactive)
- GI50 (UACC-62): > 100 µM (inactive)

SMILES: COc1ccc(OC)c(C#Cc2ccc(OC)c(C(=O)NCCc3ccc(F)cc3)c2)c1
- GI50 (BT-549): > 100 µM (inactive)
- GI50 (SF-295): 4.67 µM (inactive)
- GI50 (SK-MEL-28): 1.73 µM (inactive)
- GI50 (A498): 9.84 µM (inactive)
- GI50 (OVCAR-4): 6.32 µM (inactive)
- GI50 (OVCAR-5): > 100 µM (inactive)
- GI50 (SNB-19): 61.2 µM (inactive)
- GI50 (OVCAR-8): > 100 µM (inactive)
- GI50 (786-0): > 100 µM (inactive)
- GI50 (T47D): 2.86 µM (inactive)
- GI50 (HL-60): 5.13 µM (inactive)
- GI50 (U-251): 6.07 µM (inactive)
- GI50 (A549): 7.55 µM (inactive)
- GI50 (MDA-MB-435): 1.23 µM (inactive)
- GI50 (NCI-H23): > 100 µM (inactive)
- GI50 (RPMI-8226): 3.32 µM (inactive)
- GI50 (KM12): 4.13 µM (inactive)
- GI50 (MCF7): 6.5 µM (inactive)
- GI50 (ACHN): > 100 µM (inactive)
- GI50 (HT-29): 3.17 µM (inactive)
- GI50 (IGROV-1): 3.53 µM (inactive)
- GI50 (COLO 205): 5.22 µM (inactive)
- GI50 (MOLT-4): 2.19 µM (inactive)
- GI50 (CAKI-1): > 100 µM (inactive)
- GI50 (K562): 2.39 µM (inactive)
- GI50 (NCI-H460): 5.09 µM (inactive)
- GI50 (UACC-257): > 100 µM (inactive)
- GI50 (SF-268): > 100 µM (inactive)
- GI50 (PC-3): 5.14 µM (inactive)
- GI50 (TK-10): > 100 µM (inactive)
- GI50 (HCT-15): 4.45 µM
- GI50 (LOX IMVI): > 100 µM (inactive)
- GI50 (Hs-578T): > 100 µM (inactive)
- GI50 (NCI-H522): 2.25 µM (inactive)
- GI50 (SW-620): 4.02 µM (inactive)
- GI50 (SK-MEL-5): 4.42 µM (inactive)
- GI50 (M14): 5.53 µM (inactive)
- GI50 (HCC 2998): 2.27 µM (inactive)
- GI50 (EKVX): > 100 µM (inactive)
- GI50 (SK-MEL-2): 5.05 µM (inactive)
- GI50 (UO-31): 28.3 µM (inactive)
- GI50 (NCI/ADR-RES): 7.8 µM (inactive)
- GI50 (SR): 0.783 µM (active)
